Measured values from patent US9676997B2, “Compositions and methods for stabilizing luminogenic substrates” (Promega Corporation, priority 2014, dated 2017).

Legend:
[1] = Stability of furimazine at 37° C. in different organic solvents with or without ATT, luminescence with NANOLUC luciferase; assay type: physicochemical; settings: 50% PG:50% ethanol, 60% PG:40% ethanol, 15% glycerol:85% ethanol, 250 or 300 mM ATT vs no ATT
Procedure: To further examine the stabilization of furimazine at 37° C., luminescence was measured after furimazine was incubated in the presence of different organic solvents, namely 50% (v/v) propylene glycol (PG):50% (v/v) ethanol, 60% (v/v) propylene glycol (PG):40% (v/v) ethanol, and 15% (v/v) glycerol:85% (v/v) ethanol.
1.25 mM stocks of furimazine were prepared in the following solutions: a) 50% propylene glycol:50% ethanol, 1.25 mM furimazine, 250 mM ATT; b) 60% propylene glycol:40% ethanol, 1.25 mM furimazine, 300 mM ATT; c) 15% glycerol:85% ethanol, 1.25 mM furimazine, 250 mM ATT; and inventory furimazine (Promega Corporation). Furimazine was first dissolved and then ATT was added. To make 4 mL of each sample, 2 mg furimazine and 143 mg of ATT (250 mM ATT) was added. For 300 mM ATT, 171 mg of ATT was added.
A portion of these samples was aliquoted into amber Starstead tubes with O-rings and then placed at 37° C. […] The remaining sample was placed at −20° C. in a 15 mL tube and monitored for precipitate formation.
Prior to assaying the samples, they were heated to room temperature (RT) and vortexed to ensure that any material that fell out of solution was re-suspended. […] The resulting dilutions were incubated for 3 minutes at RT, and luminescence was detected on a luminometer (GLOMAX Multi plus luminometer, Promega Corporation). […]

[2] = Stability of 1.25 mM coelenterazine in 50% ethanol and 50% propylene glycol with or without 225 mM ATT, HPLC and Arrhenius plots; assay type: physicochemical; settings: 225 mM ATT, over time at different temperatures
Procedure: The stability of coelenterazine in the presence and absence of ATT was measured over time at different temperatures. Specifically, 1.25 mM coelenterazine was present in a solution of 50% ethanol and 50% propylene glycol (i.e., the solution without ATT) or a solution of 50% ethanol and 50% propylene glycol with 225 mM ATT (i.e., the solution with ATT). These two solutions were incubated at −20° C., room temperature (RT), 40° C., or 60° C. and analyzed at 0 days, 1 day, 3 days, 7 days, 15 days, and 30 days.
Following incubation, high performance liquid chromatography (HPLC) was utilized to identify the components of the respective solutions at each time point. Specifically, an Agilent 1100 HPLC instrument was used and equipped with a quaternary pump, thermostatted autosampler and column compartment, and a G1311B diode-array detector. The column used was a Synergi-MAX-RP (Phenomenex, Torrance, Calif.) 100 AÅ 50×4.6 2.5 μm. The run on the HPLC was a gradient run with 0.1% TFA in water and acetonitrile. Absorbance was measured at 262 nanometers (nm). Standards of coelenterazine and its known degradants were run to confirm both the retention time and absorbance trace. 5 μl of each solution was injected and the retention time of coelenterazine was 3.9 minutes at room temperature.
The results of the HPLC analysis are shown below in Tables 1 and 2 and FIGS. 1A and 1B, in which the values are reported as relative peak area percentage at 262 nm (i.e., the lamba max of the substrate). […] In each of FIGS. 1A and 1B, diamond is 1.25 mM coelenterazine incubated over time with or without 225 mM ATT, respectively, at −20° C., triangle is 1.25 mM coelenterazine incubated over time with or without 225 mM ATT, respectively, at room temperature (RT), star is 1.25 mM coelenterazine incubated over time with or without 225 mM ATT, respectively, at 40° C., and cross is 1.25 mM coelenterazine incubated over time with or without 225 mM ATT, respectively, at 60° C.
From the HPLC analysis, the half-life of coelenterazine in the presence of ATT at 40° C. and 60° C. was calculated to be 23 days and 5 days, respectively, while the half-life of coelenterazine in the absence of ATT at 40° C. and 60° C. was calculated to be 9.5 days and 2 days, respectively (see Table 3 below).
Additionally, Arrhenius plots were generated for coelenterazine in the presence and absence of ATT to calculate the half-life of coelenterazine at various temperatures. The Arrhenius equation is as follows: […]
In FIG. 7, the slope was −8636.59, the intercept was 24.1199, and R^2 was 0.9983.
In FIG. 8, the slope was −7382.51, the intercept was 21.2598, and R^2 was 0.9570.

## O=c1c(Cc2ccco2)nc2c(Cc3ccccc3)[nH]c(-c3ccccc3)cn1-2 [Furimazine, furimazine]
[1]
  stability of furimazine (normalized RLUs over time): more stable in the presence of ATT than in the absence of ATT for each organic solvent

## Cc1n[nH]c(=S)[nH]c1=O [ATT, 6-methyl-3-thioxo-3,4-dihydro-1,2,4-triazin-5(2H)-one]
[2]
  stabilization of coelenterazine against decomposition: stabilized coelenterazine against decomposition over time at different temperatures
